This note sets out measurements from ChEMBL document CHEMBL3244166, “Syntheses and biological activities of basically substituted isoalloxazines” (J Med Chem, 1978).

In data set [1] the test system is Rattus norvegicus. Briefly: In vivo inhibition of riboflavin activity in weanling Wistar rat assessed as change in body weight at 2 mg/kg/day administered by stomach tube prior to feeding with riboflavin-deficient diet measured for 28 days (reference value: 3 +/- 1 g). The data set is classed as functional.
Data set [2] is described as follows: Toxicity in weanling Wistar rat assessed as survival at 2 mg/rat/day administered by stomach tube prior to feeding with riboflavin-deficient diet measured for 28 days relative to control. Particulars: in vivo, oral.
The test system of data set [3] is Rattus norvegicus. Briefly: Induction of riboflavin-like activity in weanling Wistar rat assessed as change in body weight at 2 mg/kg/day administered by stomach tube prior to feeding with riboflavin-deficient diet measured for 28 days in presence of 20 ug/day riboflavin (reference value: 3 +/- 1 g). The data set is classed as functional.
Data set [4] relates to Rattus norvegicus. Briefly: Induction of riboflavin-like activity in weanling Wistar rat assessed as change in body weight at 2 mg/kg/day administered by stomach tube prior to feeding with riboflavin-deficient diet measured for 28 days in presence of 40 ug/day riboflavin (reference value: 3 +/- 1 g). The class given is functional.
Data set [5] relates to Rattus norvegicus. Briefly: Induction of riboflavin-like activity in weanling Wistar rat assessed as change in body weight at 2 mg/kg/day administered by stomach tube prior to feeding with riboflavin-deficient diet measured for 28 days in presence of 60 ug/day riboflavin (reference value: 3 +/- 1 g). The data set is classed as functional.
Data set [6] concerns Rattus norvegicus. Put plainly: In vivo inhibition of riboflavin activity in weanling Wistar rat assessed as decrease in body weight at 2 mg/kg/day administered by stomach tube prior to feeding with riboflavin-deficient diet measured for >= 14 days (reference value: 3 +/- 1 g). The class given is functional.

Turning to `Cc1cc2c(cc1Cl)nc1c(=O)[nH]c(=O)nc-1n2CCN(CCO)CCO.Cl`, the Activity in the data set with Rattus norvegicus [1] is given as -8 g. In addition, in data set [2], the survival at 672 h worked out at 100%.
Regarding `CCc1cc2nc3c(=O)[nH]c(=O)nc-3n(CCN(CCO)CCO)c2cc1C.Cl`, the Activity is given as -25 g in the data set with Rattus norvegicus [1], -2 g in the data set on Rattus norvegicus [3] and 21 g with Rattus norvegicus [4]. The survival at 672 h in data set [2] came to 60%.
`Cc1cc2nc3c(=O)[nH]c(=O)nc-3n(CCN(CCO)CCO)c2cc1Cl.Cl`: in the data set on Rattus norvegicus [1], the Activity was 0 g. In addition, in data set [2], the survival at 672 h was 100%.
Take `CCc1cc2nc3c(=O)[nH]c(=O)nc-3n(CCN(CCO)CCO)c2cc1CC.Cl`: the Activity is given as -9 g in the data set on Rattus norvegicus [3], 7 g in the data set with Rattus norvegicus [4], 33 g with Rattus norvegicus [5] and -26 g in the data set on Rattus norvegicus [6]. Also, in data set [2], the survival at 672 h stood at 25%.
`O=c1nc2n(CCN(CCO)CCO)c3cc(Cl)c(Cl)cc3nc-2c(=O)[nH]1`: the Activity with Rattus norvegicus [1] came to 6 g. The survival at 672 h in data set [2] is 100%.
Regarding `Cc1cc2nc3c(=O)[nH]c(=O)nc-3n(CCN(CCO)CCO)c2cc1C`, the Activity is listed as -10 g in the data set with Rattus norvegicus [1] and 35 g with Rattus norvegicus [3]. Further, the survival at 672 h in data set [2] was determined as 40%.
